Test [1] in a line: Effectiveness or lethality of biocide composition with substituted components (test not described).
The next test concerns V. fischeri. Put plainly: V. fischeri luminescence assay (killing). It counts as cell-based, Vibrio fischeri. The settings on record: for killing by biocide with varied alcohol: 1 mM NH3, 0.05 mM CTAB; for killing by biocide with varied detergent: 1 mM NH3, 0.5% EtOH; for decrease in luminescence: 2 mM; for effect of ethanol on V. fischeri luminescence: 1% ethanol alone. As for the experimental part:
V. fischeri was grown overnight until the culture reached log phase and were brightly luminescent. Since bacterial luminescence is an ATP driven event, light emission is directly related to the metabolism and energy charge state of the organism. […] Samples at given concentrations were added to V. fischeri in a 24 well plate. A small amount was placed in a 96 well plate, agitated, and the luminescence was read in a TECAN well plate reader. For all figures, the total time period that V. fischeri was exposed to each biocide or component was between five and fifteen minutes. […] The right side bars represent a final pH of 9. Low readings indicate killing. […] The purpose of this component is to fluidize the cell membrane to collapse the pH gradient.

The mark [2] stands for this setting: 0.05 mM detergent, pH 9.0 (FIG. 6).

Turning to `OCc1ccccc1` [benzyl alcohol], the “effectiveness as component in the composition and method of the invention” value (shortened to “effectiveness as component”) in test [1] was “effective”. Also, the “killing by biocide with varied alcohol” value in the test with V. fischeri (0.5% alcohol, pH 9.0 (FIG. 7)) was “some degree of killing”; with V. fischeri (alcohol raised to 1%, pH 9) it was “kill effectively”.
For `CO` [methanol], in that order: “effective”, “some degree of killing” and “kill effectively”.
As to `CCCCCCCCCCCCCCCC[N+](C)(C)C.[Cl-]` [CTAC, Cetyl trimetylammonium chloride], the “killing by biocide with varied detergent” value in the test with V. fischeri (setting [2]) is “some degree of killing”; with V. fischeri (detergent raised to 1 mM, pH 9) it was “kill effectively”.
For `CCCCCCCCCCCCCC[N+](C)(C)C.[Cl-]` [TTAC, Tetradecyl trimethyl ammonium chloride] the same measures were “some degree of killing” and “kill effectively”.
For `N` [ammonia], in the test on V. fischeri (ammonia alone, 50 mM or lower, pH 7 or 9, versus pH adjusted H2O control (FIG. 3)), the “effect of ammonia on V. fischeri luminescence” value is reported as “no difference from the control”.
With `CCCCCCCCCCCCCCCCN` [HDA, Hexadecylamine], the decrease in luminescence in the test with V. fischeri (pH 7.5) was 11%; in the test on V. fischeri (pH 9), 29%. Also, the “effect of HDA on V. fischeri luminescence” value with V. fischeri (HDA alone 0-2 mM, pH 7.5 (FIG. 2)) is “little to no effect”; in the test on V. fischeri (HDA alone, higher concentrations (up to 2 mM), pH 9 (FIG. 2)) it was “slight effect”.
As to `Nc1ccccc1` [aniline], the “lethality of biocide with aniline substituted for HAD” value in test [1] (aniline as second hydroxophore component) is “very lethal”.
For the compound `CCCCCCCCCCCCCC[N+](C)(C)C.[Br-]` [TTAB, Tetradecyl trimethyl ammonium bromide], the “killing by biocide with varied detergent” value was “some degree of killing” with V. fischeri (setting [2]) and “kill effectively” in the test on V. fischeri (detergent raised to 1 mM, pH 9).
On to `CCCO` [propanol], for which the “effectiveness as component” value in test [1] is “effective”. The “killing by biocide with varied alcohol” value in the test with V. fischeri (0.5% alcohol, pH 9.0 (FIG. 7)) is given as “some degree of killing”; in the test with V. fischeri (alcohol raised to 1%, pH 9) it was “kill effectively”.
On to `CCCCCCCCCCCCCCCC[N+](C)(C)C.[Br-]` [CTAB, Cetyl trimethylammonium bromide], for which the “killing by biocide with varied detergent” value is given as “some degree of killing” in the test on V. fischeri (setting [2]) and “kill effectively” in the test with V. fischeri (detergent raised to 1 mM, pH 9).
`CCCCCCCCCCCCOS(=O)(=O)[O-].[Na+]` [SDS, Sodium dodecyl sulfate]: the “killing by biocide with varied detergent” value in the test with V. fischeri (setting [2]) is reported as “some degree of killing”; with V. fischeri (detergent raised to 1 mM, pH 9), “kill effectively”.
For the compound butanol, in test [1], the “effectiveness as component” value is reported as “effective”. Further, the “killing by biocide with varied alcohol” value in the test on V. fischeri (0.5% alcohol, pH 9.0 (FIG. 7)) was “some degree of killing”; in the test on V. fischeri (alcohol raised to 1%, pH 9) it was “kill effectively”.
Turning to `CCO` [ethanol], the “killing by biocide with varied alcohol” value is listed as “some degree of killing” in the test with V. fischeri (0.5% alcohol, pH 9.0 (FIG. 7)) and “kill effectively” in the test with V. fischeri (alcohol raised to 1%, pH 9). The “effect of ethanol on V. fischeri luminescence” value is on record as “damage” in the test on V. fischeri (final pH 7, 5-15 min exposure (FIG. 1)) and “damage” with V. fischeri (final pH 9, 5-15 min exposure (FIG. 1)). The “higher luminescence reading at pH 9 than same concentration at pH 7” value in the test with V. fischeri (3% ethanol, pH 9 versus pH 7) amounted to 40%.

For the origin of these results see patent publication US20110008469A1, “ANTIMICROBIAL COMPOSITION AND METHODS AND APPARATUS FOR USE THEREOF” (FLORIDA GULF COAST UNIVERSITY, priority 2009, published 2011).
